Laboratory results as given in ChEMBL document CHEMBL4152336, “Optimization of the first small-molecule relaxin/insulin-like family peptide receptor (RXFP1) agonists: Activation results in an antifibrotic gene expression profile” (Eur J Med Chem, 2018).
Calls of active or inactive are those of the source. No cut-off for these calls is given here.

Key:
[1] = Drug level in C57/BL6 mouse heart at 30 mg/kg, po after 5 hrs; type: ADME, organism-based; details: in vivo
[2] = system: Mus musculus; assay: Toxicity in C57/BL6 mouse assessed as body weight at 3000 mg/kg, po treated for 5 days measured at day 6 post last dose (reference value: 20.6 +/- 2.6 g); type: organism-based; details: in vivo, 120 h
[3] = Drug level in C57/BL6 mouse heart at 3 mg/kg, iv after 0.08 hrs; type: ADME, organism-based; details: in vivo
[4] = system: Mus musculus; assay: Toxicity in C57/BL6 mouse assessed as body weight at 3000 mg/kg, po treated for 5 days measured at day 8 post last dose (reference value: 20.6 +/- 2.8 g); type: organism-based; details: in vivo, 120 h
[5] = system: Mus musculus; assay: Toxicity in C57/BL6 mouse assessed as body weight at 90 mg/kg, po treated for 5 days measured at day 8 post last dose (reference value: 20.6 +/- 2.8 g); type: organism-based; details: in vivo, 120 h
[6] = system: Mus musculus; assay: Toxicity in C57/BL6 mouse assessed as body weight at 300 mg/kg, po treated for 5 days measured at day 9 post last dose (reference value: 20.7 +/- 2.9 g); type: organism-based; details: in vivo, 120 h
[7] = organism: Homo sapiens; assay: Down regulation of TGFB1 gene expression in human HSC at 5 uM after 24 to 72 hrs by RT-qPCR analysis; type: functional
[8] = system: Mus musculus; assay: Toxicity in C57/BL6 mouse assessed as body weight at 300 mg/kg, po treated for 5 days measured at day 1 post last dose (reference value: 20.3 +/- 2.6 g); type: organism-based; details: in vivo, 120 h
[9] = Drug level in C57/BL6 mouse heart at 3 mg/kg, iv after 2 hrs; type: ADME, organism-based; details: in vivo
[10] = system: Mus musculus; assay: Toxicity in C57/BL6 mouse assessed as body weight at 90 mg/kg, po treated for 5 days measured at day 9 post last dose (reference value: 20.7 +/- 2.9 g); type: organism-based; details: in vivo, 120 h
[11] = system: Mus musculus; assay: Toxicity in C57/BL6 mouse at 3 to 30 mg/kg, po; type: organism-based; details: in vivo
[12] = system: Mus musculus; assay: Toxicity in C57/BL6 mouse assessed as body weight at 90 mg/kg, po treated for 5 days measured at day 6 post last dose (reference value: 20.6 +/- 2.6 g); type: organism-based; details: in vivo, 120 h
[13] = system: Mus musculus; assay: Toxicity in C57/BL6 mouse assessed as body weight at 300 mg/kg, po treated for 5 days measured at day 4 post last dose (reference value: 20.1 +/- 2.8 g); type: organism-based; details: in vivo, 120 h
[14] = Drug level in C57/BL6 mouse heart at 30 mg/kg, po after 24 hrs; type: ADME, organism-based; details: in vivo, BLD = below limit of detection
[15] = Drug level in C57/BL6 mouse heart at 30 mg/kg, po after 2 hrs; type: ADME, organism-based; details: in vivo
[16] = organism: Homo sapiens; assay: Down regulation of ACTA2 gene expression in human HSC at 5 uM after 24 to 72 hrs by RT-qPCR analysis; type: functional
[17] = Drug level in C57/BL6 mouse heart at 30 mg/kg, po after 1.5 hr; type: ADME, organism-based; details: in vivo
[18] = Drug level in C57/BL6 mouse heart at 3 mg/kg, iv after 1 hr; type: ADME, organism-based; details: in vivo
[19] = system: Mus musculus; assay: Toxicity in C57/BL6 mouse assessed as body weight at 3000 mg/kg, po treated for 5 days measured at day 4 post last dose (reference value: 20.1 +/- 2.8 g); type: organism-based; details: in vivo, 120 h
[20] = Drug level in C57/BL6 mouse heart at 30 mg/kg, po after 1 hr; type: ADME, organism-based; details: in vivo
[21] = system: Mus musculus; assay: Toxicity in C57/BL6 mouse assessed as abnormal behavior at 3 to 30 mg/kg, po; type: organism-based; details: in vivo
[22] = Drug level in C57/BL6 mouse heart at 3 mg/kg, iv after 24 hrs; type: ADME, organism-based; details: in vivo
[23] = system: Mus musculus; assay: Toxicity in C57/BL6 mouse assessed as body weight at 300 mg/kg, po treated for 5 days measured at day 7 post last dose (reference value: 20.6 +/- 2.9 g); type: organism-based; details: in vivo, 120 h
[24] = system: Mus musculus; assay: Toxicity in C57/BL6 mouse assessed as body weight at 90 mg/kg, po treated for 5 days measured at day 2 post last dose (reference value: 19.8 +/- 2.3 g); type: organism-based; details: in vivo, 120 h
[25] = system: Mus musculus; assay: Toxicity in C57/BL6 mouse assessed as body weight at 90 mg/kg, po treated for 5 days measured at day 3 post last dose (reference value: 19.8 +/- 2.5 g); type: organism-based; details: in vivo, 120 h
[26] = system: Mus musculus; assay: Toxicity in C57/BL6 mouse assessed as body weight at 90 mg/kg, po treated for 5 days measured at day 7 post last dose (reference value: 20.6 +/- 2.9 g); type: organism-based; details: in vivo, 120 h
[27] = Drug level in C57/BL6 mouse heart at 3 mg/kg, iv after 3 hrs; type: ADME, organism-based; details: in vivo
[28] = system: Mus musculus; assay: Toxicity in C57/BL6 mouse at 3 to 30 mg/kg, iv; type: organism-based; details: in vivo
[29] = system: Mus musculus; assay: Toxicity in C57/BL6 mouse assessed as body weight at 3000 mg/kg, po treated for 5 days measured at day 10 post last dose (reference value: 20.7 +/- 2.6 g); type: organism-based; details: in vivo, 120 h
[30] = Drug level in C57/BL6 mouse heart at 30 mg/kg, po after 3 hrs; type: ADME, organism-based; details: in vivo
[31] = Drug level in C57/BL6 mouse heart at 30 mg/kg, po after 0.17 hrs; type: ADME, organism-based; details: in vivo
[32] = system: Mus musculus; assay: Toxicity in C57/BL6 mouse assessed as body weight at 300 mg/kg, po treated for 5 days measured at day 6 post last dose (reference value: 20.6 +/- 2.6 g); type: organism-based; details: in vivo, 120 h
[33] = Drug level in C57/BL6 mouse heart at 3 mg/kg, iv after 7 hrs; type: ADME, organism-based; details: in vivo
[34] = system: Mus musculus; assay: Toxicity in C57/BL6 mouse assessed as body weight at 3000 mg/kg, po treated for 5 days measured at day 1 post last dose (reference value: 20.3 +/- 2.6 g); type: organism-based; details: in vivo, 120 h
[35] = system: Mus musculus; assay: Toxicity in C57/BL6 mouse assessed as body weight at 90 mg/kg, po treated for 5 days measured at day 1 post last dose (reference value: 20.3 +/- 2.6 g); type: organism-based; details: in vivo, 120 h
[36] = system: Mus musculus; assay: Toxicity in C57/BL6 mouse assessed as body weight at 3000 mg/kg, po treated for 5 days measured at day 7 post last dose (reference value: 20.6 +/- 2.9 g); type: organism-based; details: in vivo, 120 h
[37] = system: Mus musculus; assay: Toxicity in C57/BL6 mouse assessed as body weight at 3000 mg/kg, po treated for 5 days measured at day 9 post last dose (reference value: 20.7 +/- 2.9 g); type: organism-based; details: in vivo, 120 h
[38] = organism: Homo sapiens; assay: Upregulation of MMP1 gene expression in human HSC at 5 uM after 24 to 72 hrs by RT-qPCR analysis; type: functional
[39] = organism: Homo sapiens; assay: Down regulation of CTGF gene expression in human HSC at 5 uM after 24 to 72 hrs by RT-qPCR analysis; type: functional
[40] = organism: Homo sapiens; assay: Down regulation of COL1A1 gene expression in human HSC at 5 uM after 24 to 72 hrs by RT-qPCR analysis; type: functional
[41] = Drug level in C57/BL6 mouse heart at 3 mg/kg, iv after 0.25 hrs; type: ADME, organism-based; details: in vivo
[42] = system: Mus musculus; assay: Toxicity in C57/BL6 mouse assessed as mouse death at 90 to 3000 mg/kg, po treated for 5 days measured at day 5 post last dose; type: organism-based; details: in vivo, 120 h
[43] = system: Mus musculus; assay: Toxicity in C57/BL6 mouse assessed as abnormal behavior at 3 to 30 mg/kg, iv; type: organism-based; details: in vivo

CC(C)Oc1ccccc1C(=O)Nc1ccccc1C(=O)Nc1cccc(S(=O)(=O)C(F)(F)F)c1
Drug uptake [1]: 0.256 µmol/kg | Activity [2]: 21.1 g | Drug uptake [3]: 4.12 µmol/kg | Activity [4]: 21.1 g | Activity [5]: 20.6 g | Activity [6]: 21 g | Activity [7]: Active | Activity [8]: 20.4 g | Drug uptake [9]: 1.206 µmol/kg | Activity [10]: 20.8 g | Activity [11]: Non-Toxic | Activity [12]: 20.4 g | Activity [13]: 20.4 g | Drug uptake [14]: Bld | Drug uptake [15]: 1.016 µmol/kg | Activity [16]: Active | Drug uptake [17]: 2.026 µmol/kg | Drug uptake [18]: 1.395 µmol/kg | Activity [19]: 20.7 g | Drug uptake [20]: 1.041 µmol/kg | Activity [21]: Non-Toxic | Drug uptake [22]: 0.109 µmol/kg | Activity [23]: 20.9 g | Activity [24]: 19.9 g | Activity [25]: 19.9 g | Activity [26]: 20.4 g | Drug uptake [27]: 0.6 µmol/kg | Activity [28]: Non-Toxic | Activity [29]: 21.3 g | Drug uptake [30]: 0.995 µmol/kg | Drug uptake [31]: 0.926 µmol/kg | Activity [32]: 20.8 g | Drug uptake [33]: 0.394 µmol/kg | Activity [34]: 20.6 g | Activity [35]: 19.9 g | Activity [36]: 21.2 g | Activity [37]: 21.2 g | Activity [38]: Active | Activity [39]: Active | Activity [40]: Active | Drug uptake [41]: 2.084 µmol/kg | Activity [42]: Non-Toxic | Activity [43]: Non-Toxic
